Source: US12708659B2, “Polyphenolic insulin” (KIMBALL WESTWARD LLC, priority 2020, dated 2026)

Columns and labels:
[1] = Preservation of quercetin-containing insulin hexameric complexes by small phenolic compounds; type: physicochemical; details: as small phenolic compound
[2] = biological target: insulin (Homo sapiens, UniProt P01308); details: does not require zinc ions; read-out: dissociation constant Kd of dimerization; cited from earlier work
Sequence of insulin (P01308 25-54 limits assumed): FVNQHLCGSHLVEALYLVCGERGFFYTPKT
Sequence of insulin (P01308 90-110 limits assumed): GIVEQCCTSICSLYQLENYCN

Compound	preservation of insulin hexameric complexes that contained quercetin [1]	Kd [2] [µM]
O=C(O)c1ccc(O)cc1 [4-hydroxybenzoic acid]	better preserve insulin hexameric complexes	–
O=C([O-])c1ccccc1.[Na+] [sodium benzoate]	better preserve insulin hexameric complexes	–
insulin: anabolic hormone of A-chain and B-chain linked by disulfide bonds	–	~10
